From ChEMBL document CHEMBL1122453, “Structure-activity relationships in the antiinflammatory steroids: a pattern-recognition approach” (1983)

Organism: Homo sapiens
Assay: Potency relative to fluocinolone 16,17-acetonide in the human vasoconstictor test
Type: functional

Compared with `CCCOC(=O)[C@@]1(OC(=O)CC)[C@@H](C)CC2C3CCC4=CC(=O)C=CC4(C)C3(F)[C@@H](O)CC21C` (stereo partly specified), `CCOC(=O)[C@@]1(OC(=O)CC)[C@@H](C)CC2C3CCC4=CC(=O)C=CC4(C)[C@@]3(F)[C@@H](O)CC21C` (stereo partly specified) is higher in Potency: 30 for the first, 75 for the second.

Compared with `CCC(=O)O[C@]1(C(C)=O)C(C)CC2C3CCC4=CC(=O)C=CC4(C)[C@@]3(F)C(O)CC21C` (stereo partly specified), `CCOC(=O)[C@@]1(OC(C)=O)[C@@H](C)CC2C3CCC4=CC(=O)C=CC4(C)C3(F)[C@@H](O)CC21C` (stereo partly specified) is lower in Potency: 1170 for the first, 16 for the second.

First: CCCC(=O)OCC(=O)[C@@]1(OC(=O)CCC)CC[C@H]2[C@@H]3C[C@H](F)C4=CC(=O)C=C[C@]4(C)[C@@]3(F)[C@@H](O)C[C@@]21C
Second: CCCC(=O)O[C@]1(C(=O)COC(=O)CC)CCC2C3C[C@H](F)C4=CC(=O)C=CC4(C)[C@@]3(F)C(O)CC21C (stereo partly specified)
The Potency of the first is lower: 540 for the first, 1058 for the second.

First: CCC(=O)O[C@]1(C(=O)COC(C)=O)CCC2C3C[C@H](F)C4=CC(=O)C=CC4(C)[C@@]3(F)C(O)CC21C (stereo partly specified)
Second: CCCCC(=O)O[C@]1(C(=O)COC(C)=O)CCC2C3C[C@H](F)C4=CC(=O)C=CC4(C)[C@@]3(F)C(O)CC21C (stereo partly specified)
The Potency of the first is higher: 1080 for the first, 720 for the second.

First: CCCC(=O)O[C@]1(C(=O)OCC)[C@@H](C)CC2C3CCC4=CC(=O)C=CC4(C)C3(F)[C@@H](O)CC21C (stereo partly specified)
Second: CCCC(=O)OC1(C(=O)CCl)[C@@H](C)CC2C3CCC4=CC(=O)C=C[C@]4(C)[C@@]3(F)[C@@H](O)C[C@@]21C (stereo partly specified)
The Potency of the first is lower: 40 for the first, 1166 for the second.

Compared with `C[C@]12C=CC(=O)C=C1CC[C@@H]1[C@@H]2[C@@H](O)C[C@@]2(C)[C@H]1CC[C@]2(O)C(=O)COP(=O)(O)O` [PREDNISOLONE PHOSPHORIC ACID], `CC(=O)OCC(=O)[C@@]1(O)[C@@H](C)C[C@H]2[C@@H]3CCC4=CC(=O)C=C[C@]4(C)[C@@]3(F)[C@@H](O)C[C@@]21C` [BETAMETHASONE ACETATE] is higher in Potency: 0.1 for the first, 18 for the second.

Compared with `C[C@@H]1C[C@H]2[C@@H]3C[C@H](F)C4=CC(=O)C=C[C@]4(C)[C@@]3(F)[C@@H](O)C[C@]2(C)[C@@]1(O)C(=O)COC(=O)C(C)(C)C` [FLUMETHASONE PIVALATE], `CCC(=O)O[C@]1(C(=O)COC(=O)C(C)(C)C)CCC2C3C[C@H](F)C4=CC(=O)C=CC4(C)[C@@]3(F)C(O)CC21C` (stereo partly specified) is higher in Potency: 360 for the first, 720 for the second.

First: CC(=O)OCC(=O)[C@@]1(OC(=O)C(C)C)CCC2C3C[C@H](F)C4=CC(=O)C=CC4(C)[C@@]3(F)C(O)CC21C (stereo partly specified)
Second: CCC(=O)O[C@]1(C(C)=O)CCC2C3C[C@H](F)C4=CC(=O)C=CC4(C)[C@@]3(F)C(O)CC21C (stereo partly specified)
The Potency of the first is lower: 720 for the first, 900 for the second.

Compared with `CC(C)C(=O)OCC(=O)[C@@]1(O)C(C)CC2C3CCC4=CC(=O)C=CC4(C)[C@@]3(F)C(O)CC21C` (stereo partly specified), `CCCCC(=O)O[C@]1(C(=O)CO)CCC2C3C[C@H](F)C4=CC(=O)CCC4(C)[C@@]3(F)C(O)CC21C` (stereo partly specified) is higher in Potency: 90 for the first, 360 for the second.

Work on `CCC(=O)O[C@]1(C(=O)CO)CCC2C3C[C@H](F)C4=CC(=O)C=CC4(C)[C@@]3(F)C(O)CC21C` (stereo partly specified) yielded a Potency of under 360.
For `CC(=O)O[C@]1(C(=O)O)[C@@H](C)CC2C3CCC4=CC(=O)C=CC4(C)C3(F)[C@@H](O)CC21C` (stereo partly specified), the Potency was under 1.
For `CCCCC(=O)O[C@]1(C(=O)CO)CCC2C3CCC4=CC(=O)C=CC4(C)C3C(O)CC21C` (stereo partly specified), the Potency was under 1.
For `CC12C=CC(=O)C=C1[C@@H](F)CC1C3CC[C@](O)(C(=O)CO)C3(C)CC(O)[C@@]12F` (stereo partly specified), the Potency was under 360.

Organism: Rattus norvegicus
Assay: Anti-inflammatory effect in rat granuloma assay, activity relative to hydrocortisone and hydrocortisone 21-acetate
Type: functional

Going from `C[C@@H]1CC2C3CCC4=CC(=O)C=CC4(C)[C@@]3(F)C(O)=CC2(C)[C@@]1(O)C(=O)CO` (stereo partly specified) to `C[C@@H]1C[C@H]2[C@@H]3CCC4=CC(=O)C=C[C@]4(C)[C@H]3[C@@H](O)C[C@]2(C)[C@@]1(O)C(=O)CO`, the Potency falls from 140 to 11.3.

Compared with `CC(=O)OCC(=O)[C@@]12OC(C)(C)O[C@@H]1CC1C3C[C@H](F)C4=CC(=O)CCC4(C)C3C(O)CC12C` (stereo partly specified), `CC1(C)O[C@@H]2CC3C4C[C@H](F)C5=CC(=O)CCC5(C)[C@@]4(F)C(O)CC3(C)[C@]2(C(=O)CO)O1` (stereo partly specified) is higher in Potency: 4 for the first, 103 for the second.

`CC(=O)OCC(=O)[C@@]1(O)[C@H](C)CC2C3C[C@H](F)C4=CC(=O)CCC4(C)[C@@]3(F)C(O)CC21C` (stereo partly specified) and `CC(=O)OCC(=O)[C@@]1(O)CCC2C3C[C@H](F)C4=CC(=O)CCC4(C)[C@@]3(F)C(O)CC21C` (stereo partly specified) are the same in Potency: 50 for the first, 50 for the second.

First: CC(=O)OCC(=O)[C@@]1(O)CCC2C3CCC4=CC(=O)CCC4(C)[C@@]3(F)C(=O)CC21C (stereo partly specified)
Second: CC(=O)OCC(=O)[C@@]1(O)CCC2C3C[C@H](Cl)C4=CC(=O)CCC4(C)[C@@]3(F)C(=O)CC21C (stereo partly specified)
The Potency of the first is higher: 10 for the first, 8 for the second.

Compared with `C[C@H]1CC2C3CCC4=CC(=O)C=CC4(C)C3C(=O)CC2(C)[C@@]1(O)C(=O)CO` (stereo partly specified), `CC(=O)OCC(=O)[C@@]1(O)CC[C@H]2[C@@H]3CCC4=CC(=O)C=C[C@]4(C)[C@H]3C(=O)C[C@@]21C` is lower in Potency: 26 for the first, 1 for the second.

First: CC(=O)OCC(=O)[C@@]1(O)CCC2C3C[C@H](F)C4=CC(=O)C=CC4(C)[C@@]3(F)C(O)CC21C (stereo partly specified)
Second: CC(=O)OCC(=O)[C@@]1(O)CCC2C3CCC4=CC(=O)C=CC4(C)[C@@]3(F)C(O)CC21C (stereo partly specified)
The Potency of the first is higher: 200 for the first, 14 for the second.

Compared with `CC(=O)OCC(=O)[C@@]1(O)CCC2C3CCC4=CC(=O)[C@H](C)CC4(C)[C@@]3(F)C(O)CC21C` (stereo partly specified), `CC(=O)OCC(=O)C1CCC2C3CCC4=CC(=O)CCC4(C)[C@@]3(F)C(O)CC12C` (stereo partly specified) is lower in Potency: 9 for the first, 2.7 for the second.

Compared with `CC12CCC(=O)C=C1[C@@H](F)CC1C3C[C@@H](O)[C@](O)(C(=O)CO)C3(C)CC(O)[C@@]12F` (stereo partly specified), `CC12CCC(=O)C=C1[C@@H](Cl)CC1C3CC(O)[C@](O)(C(=O)CO)C3(C)CC(O)[C@@]12F` (stereo partly specified) is higher in Potency: 15 for the first, 50 for the second.

Compared with `C[C@@H]1CC2C3CCC4=CC(=O)CCC4(C)C3C(O)CC2(C)[C@@]1(O)C(=O)CO` (stereo partly specified), `C[C@H]1CC2C3CCC4=CC(=O)CCC4(C)C3C(O)CC2(C)[C@@]1(O)C(=O)CO` (stereo partly specified) is higher in Potency: 1.4 for the first, 4 for the second.

First: CC(=O)OCC(=O)[C@@]1(O)CCC2C3C[C@H](F)C4=CC(=O)C=CC4(C)C3C(=O)CC21C (stereo partly specified)
Second: CC(=O)OCC(=O)[C@@]1(O)CCC2C3C[C@H](F)C4=CC(=O)CCC4(C)C3C(=O)CC21C (stereo partly specified)
The Potency of the first is higher: 20 for the first, 10 for the second.

Compared with `C[C@@H]1CC2C3C[C@H](C)C4=CC(=O)C=CC4(C)[C@@]3(F)C(O)CC2(C)[C@@]1(O)C(=O)CO` (stereo partly specified), `C[C@@H]1CC2C3CCC4=CC(=O)CCC4(C)[C@@]3(F)C(O)CC2(C)[C@@]1(O)C(=O)CO` (stereo partly specified) is lower in Potency: 200 for the first, 36 for the second.

Going from `CC(=O)OCC(=O)[C@@]1(O)CCC2C3C[C@H](Cl)C4=CC(=O)CCC4(C)C3C(O)CC21C` (stereo partly specified) to `CC12C=CC(=O)C=C1[C@@H](Cl)CC1C2C(O)CC2(C)C1CC[C@]2(O)C(=O)CO` (stereo partly specified), the Potency rises from 11 to 14.

Compared with `C[C@H]1C[C@@H]2[C@H]([C@@H](O)C[C@@]3(C)[C@H]2CC[C@]3(O)C(=O)CO)[C@@]2(C)C=CC(=O)C=C12` (stereo in doubt; 68) [METHYLPREDNISOLONE], `C[C@@H]1CC2C3CCC4=CC(=O)C=CC4(C)C3[C@@H](O)CC2(C)C1C(=O)CO` (stereo partly specified) is lower in Potency: 200 for the first, 3 for the second.

Going from `CC12CCC(=O)C=C1[C@@H](F)CC1C2C(O)CC2(C)C1C[C@@H](O)[C@]2(O)C(=O)CO` (stereo partly specified) to `C[C@]12CCC(=O)C=C1CC[C@@H]1[C@@H]2C(=O)C[C@@]2(C)[C@H]1CC[C@]2(O)C(=O)CO` [CORTISONE], the Potency falls from 5 to 0.4.

`CC(=O)OCC(=O)C1CCC2C3CCC4=CC(=O)[C@H](C)CC4(C)C3C(O)CC12C` (stereo partly specified) showed a Potency of 0.3.
